# Earlier results as cited in patent US20090022788A1, “DIETARY SUPPLEMENT FOR HEALING OR REGRESSING SYMPTOMS OF GASTROESOPHAGEAL REFLUX DISEASE, GASTRITIS AND ULCERS” (priority 2006, published 2009).
# System: spontaneous gastric ulcers
# Conditions: young pigs, 4-week administration in the diet
smiles,measurement,value
"COc1ccc2[nH]cc(CCNC(C)=O)c2c1 [melatonin, N-Acetyl-5-methoxytryptamine]",incidence of spontaneous gastric ulcers,significantly reduced
